According to patent US20240043448A1, “Small Molecule Inhibitors of KRAS G12C Mutant” (Merck Sharp & Dohme LLC, priority 2019, published 2024):
Where two headings read alike, the source gives them in different places.

Experiments:
[1] = molecular target: Biotinylated KRAS G12C protein (Homo sapiens (Human), UniProt P01116, C118S/C51S/C80L/G12C); assay: SOS-catalyzed nucleotide exchange assay (TR-FRET); assay type: biochemical; settings: in vitro apparent potency; preincubation time of 60 minutes prior to addition of SOS
Experimental: The SOS-catalyzed nucleotide exchange assay utilizes a preformed complex of recombinant biotinylated KRAS protein containing G12C/C51S/C80L/C118S mutations (183 amino acids; biotin on K10; leader sequence which is an AviTag; referred to as SEQ ID NO: 1 or “Biotinylated KRAS G12C protein” hereafter), Bodipy-GDP, and Terbium-streptavidin. Compounds are added to this complex and then after incubation for 60 minutes, the mixture is treated with recombinant SOS protein and unlabeled GTP. Small molecule inhibitors stabilize the Bodipy-GDP complex whereas the untreated protein rapidly exchanges Bodipy-GDP for unlabeled GTP resulting in reduced TR-FRET signal.
Biotinylated KRAS G12C protein (SEQ ID NO: 1) is diluted to 2 μM in an EDTA buffer (20 mM HEPES, 150 mM sodium chloride, 10 mM EDTA, and 0.01% Tween) and incubated at room temperature for one hour. This mixture is then further diluted to 90 nM in an assay buffer (20 mM HEPES, 150 mM sodium chloride, 10 mM magnesium chloride, and 0.005% Tween) containing 15 nM of Terbium-Streptavidin (Invitrogen, catalog #PV3577) and 900 nM of Bodipy-GDP and incubated at room temperature for six hours. This solution is referred to as Biotinylated KRAS G12C mixture.
Each test compound (10 mM stock in DMSO) is diluted in DMSO to make a 10-point, 3-fold dilution series in a 384-well low dead volume microplate (Labcyte, catalog #LP-0200). Once titrations are made, 10 nL of the diluted compounds is acoustically dispensed into a 384-well plate (Corning, catalog #3820) using an Echo 550 (Labcyte).
Each well of the plate receives 3 μL Biotinylated KRAS G12C mixture that had been incubating for six hours and 3 μL of assay buffer using a BioRAPTR (Beckman Coulter) and is incubated at room temperature for 60 minutes. Each well then receives 3 μL of 240 nM recombinant human SOS protein and 9 mM GTP (Sigma, G8877) in assay buffer and is incubated at room temperature for 60 minutes.
The time-resolved fluorescence resonance energy transfer signal of the plate is measured on an Envision (PerkinElmer) plate reader: Excitation filter=340 nm; emission1=495 nm; emission2=520 nm; dichroic mirror=D400/D505; delay time=100 μs. The signal of each well is determined as the ratio of the emission at 520 nm to that at 495 nm. Percent effect of each well is determined after normalization to control wells containing DMSO (no effect) or a saturating concentration of inhibitor (max effect). The apparent effect as a function of compound concentration is fit to a four parameter logistic equation.

phospho-ERK = assay: Cellular phospho-ERK assay; assay type: cell-based; settings: NCI-H358 cells, 2 hour incubation, ratio of p-Erk vs total Erk, read-out: IC50 (nM) pERK (Cell)
Experimental: NCI-H358 cells (ATCC® CRL-5807™) were cultured in T150 flask in growth medium (RPMI medium 1640-GlutaMAX™-I (ThermoFisher Scientific 61870) containing 10% fetal bovine serum (ThermoFisher Scientific 10091148)). The cells were harvested in growth medium after TrypLE (ThermoFisher scientific 12604021) digestion and were seeded in a 384-well collagen coated cell culture plate (Corning 356702) at a density of 15,000 cells/well, and incubated at 37° C., 5% CO2 overnight. The compound dose-response titrations were prepared and appropriate amounts of compounds were dispensed in a 384-well intermediate plate using an Echo 550 liquid handler. RPMI medium 1640-GlutaMAX™-I were added to the intermediate plate and transferred to 384-well cell culture plate, which was incubated at 37° C., 5% CO2 for 2 hours. After removal of medium from the plate, cells were lysed in lysis buffer from Alpha SureFire® Ultra™ Multiplex p-Erk and total Erk assay kit (PerkinElmer MPSU-PTERK) containing Halt™ Protease and Phosphotase inhibitor cocktail (ThermoFisher Scientific 78446) at room temperature with constant shaking at 300 rpm for 30 minutes. The cell lysates were then transferred to OptiPlate-384 plate (PerkinElmer 6005620) and the phosphorylation of Erk and total Erk levels were detected by Alpha SureFire Ultra Multiplex p-Erk kit (PerkinElmer MPSU-PTERK) following the manufacturer's protocol. Assay plates were read on an EnVision Multimode Plate Reader (PerkinElmer), and the ratio of p-Erk vs total Erk in each well was used as the final readout. Dose response curves were analyzed using a 4-parameter logistic model to calculate IC50 values using spotfire software.

IC50 [1] [nM]	IC50 (phospho-ERK; Homo sapiens, NCI-H358, 2 h) [nM]	IC50 (phospho-ERK) [nM]	Molecule
2.5	15	–	C=CC(=O)N1C[C@H](C)N(c2nc(=O)n3c4nc(c(F)cc24)-c2c(F)ccc(F)c2OCCCc2ccnc(C(C)C)c2-3)C[C@H]1C [Example 95, 2-[(2S,5R)-2,5-dimethyl-4-(prop-2-enoyl)piperazin-1-yl]-14,17,20-trifluoro-6-(propan-2-yl)-11,12-dihydro-4H,10H-1,18-(ethanediylidene)pyrido[4,3-e]pyrimido[1,6-g][1,7,9]benzoxadiazacyclododecin-4-one]
20	68	–	C=CC(=O)N1C[C@H](C)N(c2nc(=O)n3c4nc(c(F)cc24)-c2cc(F)cc4cnn(c24)CCCCc2ccnc(C(C)C)c2-3)C[C@H]1C [Example 108, 2-[(2S,5R)-2,5-dimethyl-4-(prop-2-enoyl)piperazin-1-yl]-18,22-difluoro-6-(propan-2-yl)-10,11,12,13-tetrahydro-4H-1,20-(ethanediylidene)pyrido [4′,3′:12,13]pyrimido[1′,6′:1,2][1,3,7] triazacyclotridecino[5,6,7-hi]indazol-4-one]
1100	–	2730	C=CC(=O)N1C[C@H](C)N(c2nc(=O)n3c4nc(c(F)cc24)-c2cccc(C(F)(F)F)c2OCCOc2ccnc(C(C)C)c2-3)C[C@H]1C [Example 116, 2-[(2S,5R)-2,5-dimethyl-4-(prop-2-enoyl)piperazin-1-yl]-20-fluoro-6-(propan-2-yl)-14-(trifluoromethyl)-11,12-dihydro-4H-1,18-ethenopyrido[4,3-e]pyrimido[1,6-g][1,4,7,9]benzodioxadiazacyclododecin-4-one]
31	572	–	C=CC(=O)N1C[C@H](C)N(c2nc(=O)n3c4cc(c(F)cc24)-c2c(F)ccc(F)c2OCCOc2ccnc(C(C)C)c2-3)C[C@H]1C [Example 93, 2-[(2S,5R)-2,5-dimethyl-4-(prop-2-enoyl)piperazin-1-yl]-14,17,20-trifluoro-6-(propan-2-yl)-11,12-dihydro-4H-1,18-(ethanediylidene)pyrido[4,3-e]pyrimido[1,6-g][1,4,7]benzodioxazacyclododecin-4-one]
1.5	17	–	C=CC(=O)N1C[C@H](C)N(c2nc(=O)n3c4nc(c(F)cc24)-c2c(F)cccc2OCC2(CCc4ccnc(C(C)C)c4-3)CC2)C[C@H]1C [Example 60, 2′-[(2S,5R)-2,5-dimethyl-4-(prop-2-enoyl)piperazin-1-yl]-18′,21′-difluoro-6′-(propan-2-yl)-10′,11′-dihydro-4′H,13′H-spiro[cyclopropane-1,12′-[14]oxa[3,5,7,20]tetraaza[1,19] (ethanediylidene)pyrido[4,3-f]pyrimido[1,6-h][1,8,10]benzoxadiazacyclotri-decin]-4′-one]
192	–	651	17,20-difluoro-12-hydroxy-2-[(2S)-2-methyl-4-(prop-2-enoyl)piperazin-1-yl]-6-(propan-2-yl)-10,11,12,13-tetrahydro-4H-1,18-ethenopyrido[3,4-e]pyrimido[6,1-c][2,4]benzodiazacyclododecin-4-one [Example 118-1]

Molecule	IC50 [1] [nM]	IC50 (phospho-ERK; Homo sapiens, NCI-H358, 2 h) [nM]	IC50 (phospho-ERK) [nM]
C=CC(=O)N1CCN(c2nc(=O)n3c4nc(c(F)cc24)-c2c(F)cccc2OCCCCc2ccnc(C(C)C)c2-3)[C@H](C)C1 [Example 4b, 18,21-Difluoro-2-[(2S)-2-methyl-4-(prop-2-enoyl)piperazin-1-yl]-6-(propan-2-yl)-10,11,12,13-tetrahydro-4H-1,19-ethenopyrido[4,3-f]pyrimido[1,6-h][1,8,10]benzoxadiazacyclotridecin-4-one]	6890	–	1160
C=CC(=O)N1C[C@H](C)N(c2nc(=O)n3c4nc(c(Cl)cc24)-c2c(ccc(F)c2F)OCCCc2ncnc(C(C)C)c2-3)C[C@H]1C [Example 74, 20-chloro-2-[(2S,5R)-2,5-dimethyl-4-(prop-2-enoyl)piperazin-1-yl]-16,17-difluoro-6-(propan-2-yl)-11,12-dihydro-4H,10H-1,18-ethenodipyrimido[4,5-e:1′,6′-g][1,7,9]benzoxadiazacyclododecin-4-one]	0.51	3.6	–
